Laboratory results published in US20030228357A1, “Dry granulated formulations of azithromycin” (Pfizer Inc., priority 2002, published 2003).

Experiment: Slug (compact) hardness, Schleuniger hardness tablet tester
Format: physicochemical
Source text: A compaction simulator was used to compress the blends. The compaction simulator was designed as a single station tablet press in which the compression dwell time can be adjusted to simulate different types of tablet presses. All the formulations were slugged on the compaction simulator configured as the Kilian RX-67 press with a dwell time of 0.3145 seconds using […] round flat face tooling. The slugs were then comminuted using a Fitz mill with a 0.125″ screen with knives forward and run at slow speed. […] The slugs were tested for hardness (kP scale), using a Schleuniger hardness tablet tester (Dr. Schleuniger Pharmatron AG, Solothurn, Switzerland).

Avg Slug Hardness (35.2 wt % azithromycin, dicalcium phosphate anhydrous diluent, Long blend method): 13.4 kP
Avg Slug Hardness (35.2 wt % azithromycin, dicalcium phosphate anhydrous diluent, Short blend method): 13.7 kP
Avg Slug Hardness (Table 3A, low drug loading: 35.2 wt % azithromycin, 54.8 wt % dicalcium phosphate anhydrous, long blend): 13 kP
Avg Slug Hardness (Table 3B, high drug loading: 58.2 wt % azithromycin, 31.8 wt % dicalcium phosphate anhydrous, long blend): 12 kP
Avg Slug Hardness (Table 4A, low drug loading (35.2 wt % azithromycin), diluent DCP, anhyd.): 13 kP
Avg Slug Hardness (Table 4A, low drug loading (35.2 wt % azithromycin), diluent DCP, dihyd.): 11 kP
Avg Slug Hardness (Table 4B, high drug loading (58.2 wt % azithromycin), diluent DCP, anhyd.): 12 kP
Avg Slug Hardness (Table 4B, high drug loading (58.2 wt % azithromycin), diluent DCP, dihyd.): 10 kP
Compound: CC[C@H]1OC(=O)[C@H](C)[C@@H](O[C@H]2C[C@@](C)(OC)[C@@H](O)[C@H](C)O2)[C@H](C)[C@@H](O[C@@H]2O[C@H](C)C[C@H](N(C)C)[C@H]2O)[C@](C)(O)C[C@@H](C)CN(C)[C@H](C)[C@@H](O)[C@]1(C)O [Form A, azithromycin dihydrate, reference compound]
